In PMC11198769, “Enhancement of transcription efficiency by TAR-Tat system increases the functional expression of human olfactory receptors” (PLOS ONE, 2024):
Read-outs that look alike come from different tables or passages of the source.

Columns and labels:
Assay in all cases: hOR assay (GloSensor cAMP luciferase), dose-response
Assay type in all cases: cell-based
OR10A2 = target: T1, OR10A2 (Homo sapiens, UniProt Q9H208); details: OR10A2, with or without the TAR-Tat system
T1 construct: Lucy tag (N); expressed in transfected cells; host or cells: Flp-In T-REx-293 cells stably expressing RTP1S, Gαolf and Ric8-b
T1 sequence (Q9H208 1-303): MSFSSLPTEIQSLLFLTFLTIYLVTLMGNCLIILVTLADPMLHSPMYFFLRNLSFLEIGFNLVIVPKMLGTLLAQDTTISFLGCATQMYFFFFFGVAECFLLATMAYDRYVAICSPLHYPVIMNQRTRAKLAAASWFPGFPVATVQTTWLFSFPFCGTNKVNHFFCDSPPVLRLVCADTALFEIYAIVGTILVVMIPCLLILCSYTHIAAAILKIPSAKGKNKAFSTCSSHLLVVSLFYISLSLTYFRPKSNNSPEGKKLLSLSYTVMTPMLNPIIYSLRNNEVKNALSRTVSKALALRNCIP
Experimental: (§1) Flp-In T-REx-293 cells stably expressing accessory proteins (RTP1S, Gαolf, and Ric8-b) were established using the Flp-In T-REx system. Accessory proteins-expressing cells were maintained in high-glucose Dulbecco’s modified Eagle medium (Sigma-Aldrich) containing 10% fetal bovine serum (Biowest) and 1% antibiotic–antimycotic (Nacalai tesque) at 37°C with 5% CO2.
(§2) The GloSensor™ Technology (Promega) was used for the luciferase assay of the hOR response. As the negative control, cells that were transfected by the pBApo-CMV neo vector and pHEK293 Ultra Expression Vector I were used as mock cells. hOR/pHEK and hOR/pBApo (50 ng/well) were transfected into the accessory proteins-expressing cell line (40000 cells/well) using Lipofectamine 2000 (Thermo Fisher Scientific) (400 nL/well) along with pGlosensor™-22F cAMP biosensor plasmid (Promega) (50 ng/well) in a 96-well plate. At 28 h posttransfection, the cells were washed with an assay buffer (140 mM NaCl, 10 mM HEPES, 5 mM KCl, 1 mM CaCl2・2H2O, 10 mM D-glucose, pH 7.5) and replaced with the assay buffer (50 μL/well) containing 2% GloSensor cAMP substrate and preincubated for 1 h at 25°C. Then, the assay buffer was added (130 μL/well). After 10 min of equilibration, the luminescence was measured (L0). Odorants diluted in 10% DMSO/assay buffer were treated (20 μL/well). After 9 min, the luminescence was measured (L9min). First, all the L9min values were subtracted by the L0 value (ΔL) and divided by the L0 value (ΔL/L0). The concentration range of the odorants was different for each odorant, but the minimum was 0.01 μM and the maximum was 3 mM. For all hORs, luciferase assays with hOR/pBApo and hOR/pHEK were conducted in the same 96-well plate each time, and luminescence was normalized to a maximum value of 100. Dose–response curve images were graphed using the Graph Pad Prism 9 software (Graph Pad Software).

OR4K5 = target: T2, OR4K5 (Homo sapiens, UniProt Q8NGD3); details: OR4K5, with or without the TAR-Tat system
T2 construct: Lucy tag (N); FLAG (N); Rho tag (N); expressed in transfected cells; host or cells: Flp-In T-REx-293 cells stably expressing RTP1S, Gαolf and Ric8-b
T2 sequence (Q8NGD3 1-323): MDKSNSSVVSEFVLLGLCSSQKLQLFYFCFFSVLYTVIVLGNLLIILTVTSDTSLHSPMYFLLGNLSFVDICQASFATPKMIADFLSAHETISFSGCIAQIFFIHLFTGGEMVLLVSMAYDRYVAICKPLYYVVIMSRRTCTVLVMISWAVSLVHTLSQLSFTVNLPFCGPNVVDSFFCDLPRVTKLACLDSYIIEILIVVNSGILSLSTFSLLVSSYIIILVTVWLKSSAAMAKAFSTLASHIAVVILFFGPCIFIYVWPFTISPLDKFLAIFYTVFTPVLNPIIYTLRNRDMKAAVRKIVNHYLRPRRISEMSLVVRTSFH
Experimental: as §1, §2

OR52N4 = target: T3, OR52N4 (Homo sapiens, UniProt Q8NGI2); details: OR52N4, with or without the TAR-Tat system
T3 construct: Lucy tag (N); expressed in transfected cells; host or cells: Flp-In T-REx-293 cells stably expressing RTP1S, Gαolf and Ric8-b
T3 sequence (Q8NGI2 1-321): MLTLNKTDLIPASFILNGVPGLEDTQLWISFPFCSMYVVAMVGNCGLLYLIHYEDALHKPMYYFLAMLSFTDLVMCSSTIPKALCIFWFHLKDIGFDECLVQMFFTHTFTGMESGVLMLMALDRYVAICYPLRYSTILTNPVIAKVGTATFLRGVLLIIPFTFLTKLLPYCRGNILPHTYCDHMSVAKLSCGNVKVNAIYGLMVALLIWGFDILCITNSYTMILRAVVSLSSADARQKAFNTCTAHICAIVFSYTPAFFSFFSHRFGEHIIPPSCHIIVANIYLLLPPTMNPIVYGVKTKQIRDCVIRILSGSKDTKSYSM
Experimental: as §1, §2

OR5P3 = target: T4, OR5P3 (Homo sapiens, UniProt Q8WZ94); details: for EC50: read-out: EC50 of n-hexanal concentration-response relationship
T4 construct: Lucy tag (N); FLAG (N); Rho tag (N); expressed in transfected cells; host or cells: Flp-In T-REx-293 cells stably expressing RTP1S, Gαolf and Ric8-b
T4 sequence (Q8WZ94 1-311): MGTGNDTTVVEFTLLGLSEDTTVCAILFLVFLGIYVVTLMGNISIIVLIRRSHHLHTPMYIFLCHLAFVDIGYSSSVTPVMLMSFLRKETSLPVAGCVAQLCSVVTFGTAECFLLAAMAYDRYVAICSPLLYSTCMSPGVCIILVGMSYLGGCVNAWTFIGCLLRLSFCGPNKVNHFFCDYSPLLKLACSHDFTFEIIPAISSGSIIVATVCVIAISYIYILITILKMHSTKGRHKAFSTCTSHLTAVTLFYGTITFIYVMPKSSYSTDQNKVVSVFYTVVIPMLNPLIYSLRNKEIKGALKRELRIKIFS
Experimental: as §1, §2

OR8B8 = target: T5, OR8B8 (Homo sapiens, UniProt Q15620); details: OR8B8, with or without the TAR-Tat system
T5 construct: Lucy tag (N); FLAG (N); Rho tag (N); expressed in transfected cells; host or cells: Flp-In T-REx-293 cells stably expressing RTP1S, Gαolf and Ric8-b
T5 sequence (Q15620 1-311): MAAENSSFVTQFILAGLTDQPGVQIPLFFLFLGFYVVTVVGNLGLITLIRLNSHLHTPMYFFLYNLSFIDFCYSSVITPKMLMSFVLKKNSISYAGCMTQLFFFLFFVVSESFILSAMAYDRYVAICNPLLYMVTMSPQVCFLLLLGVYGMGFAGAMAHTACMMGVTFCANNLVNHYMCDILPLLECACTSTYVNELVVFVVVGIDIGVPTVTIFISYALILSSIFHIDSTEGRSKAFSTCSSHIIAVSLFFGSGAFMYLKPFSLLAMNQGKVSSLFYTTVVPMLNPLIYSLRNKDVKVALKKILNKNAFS
Experimental: as §1, §2

concentration-dependent response to n-hexanal (OR10A2): no concentration-dependent response | concentration-dependent response to n-hexanal (OR4K5): no concentration-dependent response | concentration-dependent response to n-hexanal (OR52N4): no concentration-dependent response | EC50 (OR5P3; OR5P3/pBApo (without TAR-Tat system)): 191 µM | EC50 (OR5P3; OR5P3/pHEK (with TAR-Tat system)): 672 µM | increase of maximum value of dose-response curve with the TAR-Tat system (OR5P3; OR5P3/pHEK versus OR5P3/pBApo): 4.1 fold | concentration-dependent response to n-hexanal (OR8B8): no concentration-dependent response
SMILES: CCCCCC=O [n-hexanal]
concentration-dependent response to n-hexanal (OR5P3; OR5P3, with and without the TAR-Tat system): Concentration-dependent responses were observed
